Assay: xn = mol fraction of the nth substance listed
Settings: Drop volume

CCC[n+]1ccccc1.F[B-](F)(F)F [1-propylpyridinium tetrafluoroborate] + CO
surface tension liquid-gas [mN/m]
Settings | 293.15 K | 303.15 K | 313.15 K | 323.15 K
x1 = 0.0478 | 23.84 | 23.07 | 22.2 | 21.35
x1 = 0.0964 | 25.01 | 24.31 | 23.48 | 22.68
x1 = 0.1993 | 27.35 | 26.84 | 26.18 | 25.55
x1 = 0.3036 | 29.78 | 29.49 | 28.99 | 28.48
x1 = 0.3934 | 32.15 | 31.84 | 31.46 | 31.02
x1 = 0.4987 | 35.23 | 34.81 | 34.46 | 34.04
x1 = 0.5926 | 38.18 | 37.63 | 37.21 | 36.76
x1 = 0.6946 | 41.44 | 40.83 | 40.29 | 39.77
x1 = 0.7836 | 44.31 | 43.66 | 43.04 | 42.45
x1 = 0.8822 | 47.5 | 46.81 | 46.15 | 45.44
x1 = 0.945 | 49.5 | 48.78 | 48.1 | 47.36
x1 = 1 | 51.29 | 50.51 | 49.79 | 49.03

CCO [ethanol] + CCCC[n+]1ccc(C)cc1.F[B-](F)(F)F
x2 = 0
Settings | surface tension liquid-gas [mN/m]
293.15 K | 22.28
303.15 K | 21.49
313.15 K | 20.66
323.15 K | 19.84

CCO [ethanol] + CCCC[n+]1cccc(C)c1.F[B-](F)(F)F
x2 = 0
Settings | surface tension liquid-gas [mN/m]
293.15 K | 22.28
303.15 K | 21.49
313.15 K | 20.66
323.15 K | 19.84

CCO [ethanol] + CCCC[n+]1ccccc1.F[B-](F)(F)F
x2 = 0
Settings | surface tension liquid-gas [mN/m]
303.15 K | 21.49
313.15 K | 20.66
323.15 K | 19.84

CO [methanol] + CCCC[n+]1ccc(C)cc1.F[B-](F)(F)F
x2 = 0
Settings | surface tension liquid-gas [mN/m]
293.15 K | 22.6
303.15 K | 21.81
313.15 K | 20.93
323.15 K | 20.05

CO [methanol] + CCCC[n+]1cccc(C)c1.F[B-](F)(F)F
x2 = 0
Settings | surface tension liquid-gas [mN/m]
293.15 K | 22.6
303.15 K | 21.81
313.15 K | 20.93
323.15 K | 20.05

CO [methanol] + CCCC[n+]1ccccc1.F[B-](F)(F)F
x2 = 0
Settings | surface tension liquid-gas [mN/m]
293.15 K | 22.6
303.15 K | 21.81
313.15 K | 20.93
323.15 K | 20.05

CO [methanol] + CCC[n+]1ccccc1.F[B-](F)(F)F
x2 = 0
Settings | surface tension liquid-gas [mN/m]
293.15 K | 22.6
303.15 K | 21.81
313.15 K | 20.93
323.15 K | 20.05

Reference: the NIST ThermoML archive (doi:10.1016/j.jct.2014.07.001)
